The values below are quoted from earlier work in PMC5936891, “A focused library synthesis and cytotoxicity of quinones derived from the natural product bolinaquinone” (Royal Society Open Science, 2018).

By GI50 is commonly meant the concentration giving 50% growth inhibition.

The test system of series [1] is HepG2 hepatoma cancer cell line. Details: method as in ref 23 = [23]; 23 Jiao W-H , Xu T-T , Yu H-B , Mu F-R , Li J , Li Y-S , Yang F , Han B-N , Lin H-W 2014 Dysidaminones A-M, cytotoxic and NF-B inhibitory sesquiterpene aminoquinones from the South China Sea sponge, D. The settings on record: cited from earlier work.
The test system of series [2] is NCI-H929 myeloma. Details: method as in ref 23 = [23]; 23 Jiao W-H , Xu T-T , Yu H-B , Mu F-R , Li J , Li Y-S , Yang F , Han B-N , Lin H-W 2014 Dysidaminones A-M, cytotoxic and NF-B inhibitory sesquiterpene aminoquinones from the South China Sea sponge, D. The settings on record: cited from earlier work.
In series [3] the test system is epidermoid KB cell line. Details: method as in ref 22 = [22]; 22 Shigemori H , Madono T , Sasaki T , Mikami Y , Kobayashi JI 1994 Nakijiquinones A and B, new antifungal sesquiterpenoid quinones with an amino acid residue from an Okinawan marine sponge . Tetrahed. The note with it: cited from earlier work.
The test system of series [4] is leukaemia L-1210. Details: method as in ref 22 = [22]; 22 Shigemori H , Madono T , Sasaki T , Mikami Y , Kobayashi JI 1994 Nakijiquinones A and B, new antifungal sesquiterpenoid quinones with an amino acid residue from an Okinawan marine sponge . Tetrahed. The settings on record: read-out: GI50 leukaemia L-1210; cited from earlier work.
For series [5], the system named is L5178Y mouse lymphoma cells. More on the design: method as in PMID 19995673, PMID 3839712. The note with it: cited from earlier work.
Series [6] deals with HeLa. Details: method as in PMID 19995673, PMID 3839712. The note with it: cited from earlier work.
Series [7] relates to A-549 lung. Details: method as in ref 21 = [21]; 21 Rodríguez J , Quiñoá E , Riguera R , Peters BM , Abrell LM , Crews P 1992 The structures and stereochemistry of cytotoxic sesquiterpene quinones from Dactylospongia elegans . Tetrahedron 48 , 6667. The settings on record: cited from earlier work.
Series [8] deals with HT-29 colorectal. More on the design: method as in ref 21 = [21]; 21 Rodríguez J , Quiñoá E , Riguera R , Peters BM , Abrell LM , Crews P 1992 The structures and stereochemistry of cytotoxic sesquiterpene quinones from Dactylospongia elegans . Tetrahedron 48 , 6667. The note with it: cited from earlier work.
Series [9] has as its system P-388 leukaemia cells. Details: method as in ref 21 = [21]; 21 Rodríguez J , Quiñoá E , Riguera R , Peters BM , Abrell LM , Crews P 1992 The structures and stereochemistry of cytotoxic sesquiterpene quinones from Dactylospongia elegans . Tetrahedron 48 , 6667. The settings on record: cited from earlier work.
The test system of series [10] is melanoma B16/F10. Details: method as in ref 21 = [21]; 21 Rodríguez J , Quiñoá E , Riguera R , Peters BM , Abrell LM , Crews P 1992 The structures and stereochemistry of cytotoxic sesquiterpene quinones from Dactylospongia elegans . Tetrahedron 48 , 6667. The settings on record: cited from earlier work.

The structures appear in SMILES notation.

For `CC1=CCC[C@H]2[C@](C)(CC3=CC(=O)C=C(NCC(C)C)C3=O)[C@@H](C)CC[C@]12C` [compound 6, dysidaminone E-5], in [1], the 50% growth inhibitory concentration (GI50) is 0.94 µM.
As to `CC1=CCC[C@H]2[C@](C)(CC3=CC(=O)C=C(NCCc4ccccc4)C3=O)[C@@H](C)CC[C@]12C` [compound 7, 18-phenethylaminoavarone], in series [2], the concentration for 50% growth inhibition (GI50) is 1.76 µM.
Consider `CC1=CCC[C@H]2[C@](C)(CC3=C(O)C(=O)C=C(NCC(=O)O)C3=O)[C@@H](C)CC[C@]12C` [compound 5, nakijiquinone A], for which the “GI50 epidermoid KB” value in [3] was 18.92 µM. Further, the GI50 in [4] was 9.46 µM.
Turning to `CC1=CCC[C@H]2[C@](C)(CC3=CC(=O)C=CC3=O)[C@@H](C)CC[C@]12C` [compound 2, avarone], in [5], the “ED50 L5178Y mouse lymphoma cells” value is 0.62 ± 0.11 µM. Moreover, in [6], the GI50 is 26.8 ± 3 µM.
As to `C=C1CCC[C@H]2[C@](C)(CC3=C(O)C(=O)C=C(OC)C3=O)[C@@H](C)CC[C@]12C` [compound 4, epi-ilimaquinone], the GI50 in series [7] is 2.51 µM; in [8], 9.48 µM; in series [9], 6.14 µM; in series [10], 3.1 µM.
